Where a name gives a salt, the structure may show the parent alone.

As usually defined, the EC50 is the concentration at which the effect is half-maximal. The term melting point denotes the temperature of the solid-liquid transition.

T1 sequence (P13945 whole entry): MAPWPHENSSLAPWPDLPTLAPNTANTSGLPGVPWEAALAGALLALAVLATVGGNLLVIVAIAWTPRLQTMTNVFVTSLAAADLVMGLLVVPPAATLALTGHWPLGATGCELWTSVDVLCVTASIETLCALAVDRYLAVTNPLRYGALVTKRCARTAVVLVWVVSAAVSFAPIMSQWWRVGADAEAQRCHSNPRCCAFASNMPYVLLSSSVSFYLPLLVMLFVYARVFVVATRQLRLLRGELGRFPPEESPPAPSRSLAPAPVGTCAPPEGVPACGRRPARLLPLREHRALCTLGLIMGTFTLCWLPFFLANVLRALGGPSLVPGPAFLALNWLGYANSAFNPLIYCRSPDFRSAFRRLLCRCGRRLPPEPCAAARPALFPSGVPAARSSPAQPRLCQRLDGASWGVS

The first data set has as its target T1, human beta-3-adrenergic receptor (Homo sapiens, UniProt P13945).
T1 construct: Chinese hamster ovary (CHO) cells that stably express full-length human beta-3-adrenergic receptor; expressed in transfected cells
The experiment in a line: cAMP production (SPA) in CHO cells stably expressing human beta-3-adrenergic receptor, agonist activity. The format is cell-based. The following applies: cAMP production in CHO cells expressing human beta-3-adrenergic receptor; compounds binned (≦1 μM or >1 μM); read-out: Beta-3 Agonistic Activity, EC50 values. As to the method: The cell line is grown in 90% F12 nutrient mixture (HAM), 10% fetal bovine serum, 100 units/ml penicillin G sodium, […] streptomycin sulfate, and 2 mM L-glutamine at 37° C. in 95% air and 5% CO2. The transfected cell line is maintained with G418 (800ug/ml).
To test agonist activity, cells are exposed to test compound and then assayed for cAMP production. […] Test compounds are assayed from 10 μM to 3 nM with 3-fold serial dilutions. The control agonist, isoproterenol (10 mM stock in 1.1 mM ascorbate), is assayed by 3-fold dilution beginning at 1 μM. Following a 30-minute incubation with the test compounds, the buffer/compound mixture is removed. […] The cAMP values are then plotted to ascertain the EC50 of each compound tested.
(Changes in cAMP serve as a functional read-out for many G protein-coupled receptors.)
For `CC(C)c1nc(-c2ccc3c(c2)CC[C@H](CNC[C@H](O)COc2ccccc2)O3)sc1C(=O)O` [Example 190], the concentration for a half-maximal effect (EC50) was no more than 1000 nM.

Consider `O=C(O)c1cc(-c2ccc3c(c2)CC[C@H](CNC[C@H](O)COc2ccccc2)O3)cc2c1OCC2` [Example 185], for which the EC50 is no more than 1000 nM.

With `O=C(O)c1sc(-c2ccc3c(c2)CC[C@H](CNC[C@H](O)COc2ccccc2)O3)nc1-c1ccccc1` [Example 189], the EC50 is no more than 1000 nM.

In the case of `O[C@@H](CNC[C@H]1CCc2cc(I)ccc2O1)COc1ccccc1` [Example 80, (2S)-1-({[(2R)-6-iodo-3,4-dihydro-2H-chromen-2-yl]methyl}amino)-3-phenoxy-2-propanol], the half-maximal effective concentration (EC50) was no more than 1000 nM.

With `COCCc1ccc(OC[C@@H](O)CNC[C@H]2CCc3cc(-c4ccc(C(=O)O)cc4)ccc3O2)cc1` [Example 139, 4-{(2R)-2-[({(2S)-2-hydroxy-3-[4-(2-methoxyethyl)phenoxy]propyl}amino)methyl]-3,4-dihydro-2H-chromen-6-yl}benzoic acid], the EC50 was no more than 1000 nM.

With `O=C(O)c1ccc(-c2ccc3c(c2)CC[C@H](CNC[C@H](O)CSc2cccc(C(F)(F)F)c2)O3)cc1` [Example 180], the half-maximal effective concentration (EC50) is greater than 1000 nM.

In the case of `COC(=O)c1ccc(-c2ccc3c(c2)CC[C@H](CNC[C@H](O)COc2ccccc2)O3)cc1` [Example 84, Methyl 4-[(2R)-2-({[(2S)-2-hydroxy-3-phenoxypropyl]amino}methyl)-3,4-dihydro-2H-chromen-6-yl]benzoate], the concentration for a half-maximal effect (EC50) is no more than 1000 nM.

Consider `CCOc1cc(-c2ccc3c(c2)CC[C@H](CNC[C@H](O)COc2ccccc2)O3)ccc1C(=O)O` [Example 207], for which the EC50 was no more than 1000 nM.

Regarding `CCCOc1cc(-c2ccc3c(c2)CC[C@H](CNC[C@H](O)COc2ccccc2)O3)ccc1C(=O)O` [Example 208], the EC50 was no more than 1000 nM.

Consider `CC(C)(C)c1ccc(-c2cc(-c3ccc4c(c3)CC[C@H](CNC[C@H](O)COc3ccccc3)O4)ccc2C(=O)O)cc1` [Example 220], for which the half-maximal effective concentration (EC50) is no more than 1000 nM.

For the compound `COC(=O)c1csc(-c2ccc3c(c2)CC[C@H](CNC[C@H](O)COc2ccccc2)O3)c1` [Example 132], the half-maximal effective concentration (EC50) was no more than 1000 nM.

For the compound `O=C(O)c1csc(-c2ccc3c(c2)CC[C@H](CNC[C@H](O)COc2ccccc2)O3)c1` [Example 186], the EC50 was no more than 1000 nM.

`CCOC(=O)c1nn(C)c(C)c1-c1ccc2c(c1)CC[C@H](CNC[C@H](O)COc1ccccc1)O2` [Example 131]: the EC50 was no more than 1000 nM.

As for `COc1ccc(OCC(O)CNC[C@H]2CCc3cc(-c4ccc(C(=O)O)cc4)ccc3O2)cc1` (some centres unmarked) [Example 230], the EC50 is greater than 1000 nM.

As for `CC(C)c1cccc(C(C)C)c1OC[C@@H](O)CNC[C@H]1CCc2cc(-c3ccc(C(=O)O)cc3)ccc2O1` [Example 140, 4-[(2R)-2-({[(2S)-3-(2,6-diisopropylphenoxy)-2-hydroxypropyl]amino}methyl)-3,4-dihydro-2H-chromen-6-yl]benzoic acid], the half-maximal effective concentration (EC50) was greater than 1000 nM.

As for `COC(=O)c1nc(-c2ccc3c(c2)CC[C@H](CNC[C@H](O)COc2ccccc2)O3)sc1C(C)C` [Example 138], the 50% effective concentration (EC50) was greater than 1000 nM.

`CCOC(=O)c1nc(-c2ccc3c(c2)CC[C@H](CNC[C@H](O)COc2ccccc2)O3)oc1-c1ccccc1` [Example 134]: the EC50 is greater than 1000 nM.

For the compound `Cc1ccc(-c2cc(-c3ccc4c(c3)CC[C@H](CNC[C@H](O)COc3ccccc3)O4)ccc2C(=O)O)cc1` [Example 217], the EC50 is no more than 1000 nM.

`O=C(O)c1ccc(-c2ccc3c(c2)CC[C@H](CNC[C@H](O)CSc2ccccc2F)O3)cc1` [Example 174]: the 50% effective concentration (EC50) was no more than 1000 nM.

Turning to `O=C(O)c1ccc(-c2ccc3c(c2)CCC(CNC[C@H](O)COc2ccccc2)O3)cc1O` (stereo in doubt) [Example 213, 2-hydroxy-4-[(2S)-2-({[(2S)-2-hydroxy-3-phenoxypropyl]amino}methyl)-3,4-dihydro-2H-chromen-6-yl]benzoic acid], the concentration giving a half-maximal response (EC50) was no more than 1000 nM.

As to `COC(=O)c1nc(-c2ccc3c(c2)CC[C@H](CNC[C@H](O)COc2ccccc2)O3)sc1-c1ccccc1` [Example 135], the concentration for a half-maximal effect (EC50) was no more than 1000 nM.

With `O=C(O)c1ccc(-c2ccc3c(c2)CC[C@H](CNC[C@H](O)CSc2ccc(Cl)cc2)O3)cc1` [Example 173], the half-maximal effective concentration (EC50) was greater than 1000 nM.

Consider `COc1cccc(SC[C@@H](O)CNC[C@H]2CCc3cc(-c4ccc(C(=O)O)cc4)ccc3O2)c1` [Example 178], for which the half-maximal effective concentration (EC50) was greater than 1000 nM.

As for `O=C(O)c1ccc(-c2ccc3c(c2)CC[C@H](CNC[C@H](O)COc2ccc(O)cc2)O3)cc1` [Example 163], the concentration giving a half-maximal response (EC50) was no more than 1000 nM.

As for `O=C(O)c1ccc(-c2ccc3c(c2)CC[C@H](CNCC(O)COc2ccccc2-c2ccccc2)O3)cc1` (some centres unmarked) [Example 239], the EC50 is no more than 1000 nM.

For `Cc1ccccc1OCC(O)CNC[C@H]1CCc2cc(-c3ccc(C(=O)O)cc3)ccc2O1` (some centres unmarked) [Example 227], the concentration for a half-maximal effect (EC50) was no more than 1000 nM.

Consider `O=C(O)c1ccc(-c2ccc3c(c2)CC[C@H](CNC[C@H](O)CSc2cccc(F)c2)O3)cc1` [Example 175], for which the EC50 is greater than 1000 nM.

Turning to `O=C(O)c1ccc(-c2ccc3c(c2)CC[C@H](CNC[C@H](O)COc2ccccc2)O3)cc1NC1CCCCC1` [Example 197], the EC50 was no more than 1000 nM.

Consider `COC(=O)c1ccc2cc(-c3ccc4c(c3)CC[C@H](CNC[C@H](O)COc3ccccc3)O4)ccc2c1` [Example 103, methyl 6-[(2R)-2-({[(2S)-2-hydroxy-3-phenoxypropyl]amino}methyl)-3,4-dihydro-02H-chromen-6-yl]-2-naphthoate], for which the concentration for a half-maximal effect (EC50) was no more than 1000 nM.

Consider `O=C(O)c1ccc(-c2ccc3c(c2)CC[C@H](CNC[C@H](O)COc2ccccc2)O3)cc1-c1ccc(Cl)cc1` [Example 216], for which the EC50 was no more than 1000 nM.

Turning to `O=C(O)c1ccc(-c2ccc3c(c2)CC[C@H](CNC[C@H](O)COc2ccccc2)O3)cc1` [Example 142, 4-[(2R)-2-({[(2S)-2-Hydroxy-3-phenoxyropyl]amino}methyl)-3,4-dihydro-2H-chromen-6-yl]benzoic acid], the concentration for a half-maximal effect (EC50) is no more than 1000 nM.

Turning to `CCCCOc1cc(-c2ccc3c(c2)CC[C@H](CNC[C@H](O)COc2ccccc2)O3)ccc1C(=O)O` [Example 212], the EC50 was no more than 1000 nM.

With `CC(C)c1sc(-c2ccc3c(c2)CC[C@H](CNC[C@H](O)COc2ccccc2)O3)nc1C(=O)O` [Example 191], the EC50 is no more than 1000 nM.

`COC(=O)c1cc(-c2ccc3c(c2)CC[C@H](CNC[C@H](O)COc2ccccc2)O3)cs1` [Example 133]: the concentration giving a half-maximal response (EC50) was no more than 1000 nM.

System in a further data set: not given
Assay: not given
Conditions: not given
As to `O=C(O)c1ccc(-c2ccc3c(c2)CC[C@H](CNC[C@H](O)COc2ccccc2)O3)cc1` (as salt: hydrochloride) [Example 142, 4-[(2R)-2-({[(2S)-2-Hydroxy-3-phenoxyropyl]amino}methyl)-3,4-dihydro-2H-chromen-6-yl]benzoic acid], the melting point stood at 250 °C.

These data come from patent US6699860B2, “Di-substituted aminomethyl-chroman derivative beta-3 adrenoreceptor agonists” (Bayer Pharmaceuticals Corporation, priority 2000, dated 2004).
